Laboratory results as given in ChEMBL document CHEMBL1201862, “PubChem BioAssay data set” (2004).
Activity calls are given as the source filed them.

How the values were obtained:
Protein skinhead-1 = target: T1, Protein skinhead-1 (Caenorhabditis elegans, UniProt P34707); format: functional
T1 sequence (P34707 whole entry): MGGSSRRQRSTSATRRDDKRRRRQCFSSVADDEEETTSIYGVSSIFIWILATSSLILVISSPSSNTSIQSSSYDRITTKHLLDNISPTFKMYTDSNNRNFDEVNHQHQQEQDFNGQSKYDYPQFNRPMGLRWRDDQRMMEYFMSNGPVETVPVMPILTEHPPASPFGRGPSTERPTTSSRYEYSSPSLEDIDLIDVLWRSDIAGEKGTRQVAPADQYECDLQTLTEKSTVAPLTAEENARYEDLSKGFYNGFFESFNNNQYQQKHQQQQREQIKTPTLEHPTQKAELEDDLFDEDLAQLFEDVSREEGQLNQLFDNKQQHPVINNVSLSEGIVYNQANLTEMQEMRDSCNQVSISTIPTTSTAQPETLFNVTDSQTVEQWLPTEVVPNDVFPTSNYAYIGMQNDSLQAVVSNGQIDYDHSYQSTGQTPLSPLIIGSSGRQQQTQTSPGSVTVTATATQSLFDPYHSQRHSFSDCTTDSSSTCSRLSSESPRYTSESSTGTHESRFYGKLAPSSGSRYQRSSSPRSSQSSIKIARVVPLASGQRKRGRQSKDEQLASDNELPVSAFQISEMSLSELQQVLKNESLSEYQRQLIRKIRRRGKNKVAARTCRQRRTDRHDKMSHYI

[1] = target: T2, Long-chain-fatty-acid--AMP ligase FadD28 (Mycobacterium tuberculosis, UniProt P9WQ59); assay: Fluorescence polarization aasay to screen for inhibitors that compete for the binding of FadD28 to a bisubstrate Measured in Biochemical System Using Plate Reader - 2147-01_Inhibitor_Dose_CherryPick_Activity.; format: functional, Mycobacterium tuberculosis H37Rv
T2 sequence (P9WQ59 whole entry): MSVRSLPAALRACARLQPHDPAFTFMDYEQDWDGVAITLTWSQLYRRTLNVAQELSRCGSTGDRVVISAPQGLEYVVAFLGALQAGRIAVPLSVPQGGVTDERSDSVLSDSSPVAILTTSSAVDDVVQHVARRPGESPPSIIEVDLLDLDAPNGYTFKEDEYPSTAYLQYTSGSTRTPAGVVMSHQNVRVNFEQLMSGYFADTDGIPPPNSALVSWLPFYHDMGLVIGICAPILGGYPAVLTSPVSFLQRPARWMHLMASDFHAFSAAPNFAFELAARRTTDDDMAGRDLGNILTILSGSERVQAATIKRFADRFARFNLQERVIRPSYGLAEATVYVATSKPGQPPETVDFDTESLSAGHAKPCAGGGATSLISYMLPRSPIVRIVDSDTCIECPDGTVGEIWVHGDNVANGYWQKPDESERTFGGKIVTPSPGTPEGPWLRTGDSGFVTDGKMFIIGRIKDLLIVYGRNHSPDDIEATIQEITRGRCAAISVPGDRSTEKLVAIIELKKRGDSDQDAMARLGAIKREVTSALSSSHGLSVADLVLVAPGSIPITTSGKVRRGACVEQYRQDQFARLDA

Fibrinogen beta chain [2] = target: T3, Fibrinogen beta chain (Homo sapiens, UniProt P02675); assay: Fluorescence polarization-based biochemical high throughput dose response assay to identify inhibitors that disrupt the binding of a cyclic peptide (Tn6) to the fibrin proteolytic product D-Dimer and fragment E complex [DD(E )].
T3 sequence (P02675 whole entry): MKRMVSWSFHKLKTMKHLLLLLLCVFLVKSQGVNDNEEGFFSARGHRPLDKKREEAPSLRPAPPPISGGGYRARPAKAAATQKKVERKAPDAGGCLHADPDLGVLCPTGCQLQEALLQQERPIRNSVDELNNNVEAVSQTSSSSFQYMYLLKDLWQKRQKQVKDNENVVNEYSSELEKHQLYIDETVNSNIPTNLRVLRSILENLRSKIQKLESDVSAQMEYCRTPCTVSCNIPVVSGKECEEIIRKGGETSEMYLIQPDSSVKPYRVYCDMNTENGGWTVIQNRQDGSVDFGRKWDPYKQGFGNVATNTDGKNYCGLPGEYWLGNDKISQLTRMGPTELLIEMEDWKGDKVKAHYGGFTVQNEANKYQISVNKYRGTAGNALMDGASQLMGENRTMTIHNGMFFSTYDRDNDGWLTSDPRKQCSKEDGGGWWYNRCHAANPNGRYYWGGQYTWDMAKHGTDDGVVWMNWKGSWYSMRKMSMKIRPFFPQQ

Fibrinogen beta chain [3] = target: T3, Fibrinogen beta chain; assay: Fluorescence polarization-based biochemical high throughput dose response assay to identify inhibitors that disrupt the binding of a cyclic peptide (Tn7) to the fibrin proteolytic product D-Dimer and fragment E complex [DD(E )].
[4] = inhibitors of intracellular T. cruzi replication, confirmation, NIH3T3 host cells, beta-gal luminescence (AID 2044); format: functional, cell-based;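 further: intracellular parasites grown in NIH/3T3 mouse fibroblasts as host cells; luminescent beta-galactosidase reporter signal from transgenic T. cruzi replicating inside host cells; inhibitors lower the luminescence signal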
[5] = cytotoxicity toward NIH3T3 fibroblasts, dose response, counter-screen, cell-based, ATP luminescence, mouse fibroblasts (AID 2010); format: functional;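 further: cells exposed to compound for about 90 hours before reading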
[6] = THP-1 cell cytotoxicity, dose response, cytotoxicity control for non-replicating M. tuberculosis project (AID 489025); format: functional
[7] = Vero E6 cell cytotoxicity, dose response, cytotoxicity control for non-replicating M. tuberculosis project, secondary assay (AID 492998); format: functional, VeroE6; conditions: Vero C1008
[8] = target: T4, Microphthalmia-associated transcription factor (Homo sapiens, UniProt O75030); assay: TRPM1 promoter luciferase signal decrease, dose response, MITF inhibitor project, cell-based, SK-MEL-5, cherry-picked, set 3 (AID 493073); format: functional
T4 sequence (O75030 whole entry): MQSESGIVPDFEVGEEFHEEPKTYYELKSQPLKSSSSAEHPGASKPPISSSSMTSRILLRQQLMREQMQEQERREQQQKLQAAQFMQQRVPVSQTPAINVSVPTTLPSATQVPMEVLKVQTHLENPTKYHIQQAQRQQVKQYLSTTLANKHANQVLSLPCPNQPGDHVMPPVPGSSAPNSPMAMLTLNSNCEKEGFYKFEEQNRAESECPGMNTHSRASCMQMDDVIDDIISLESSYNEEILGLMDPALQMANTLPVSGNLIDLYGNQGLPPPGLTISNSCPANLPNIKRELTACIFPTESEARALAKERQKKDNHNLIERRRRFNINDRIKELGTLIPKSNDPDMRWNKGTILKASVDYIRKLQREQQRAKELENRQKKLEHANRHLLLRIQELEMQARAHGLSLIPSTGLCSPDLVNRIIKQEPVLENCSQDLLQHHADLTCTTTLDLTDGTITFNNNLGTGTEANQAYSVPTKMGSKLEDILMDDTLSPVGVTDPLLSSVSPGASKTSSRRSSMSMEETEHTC

[9] = A375 melanoma cell viability loss, dose response, counter-screen for MITF inhibitor project, CellTiter-Glo luminescence, dry powder, set 4 (AID 624364); format: functional, cell-based; conditions: A-375;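 further: A375 melanoma cells are MITF independent so this is a counter screen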
[10] = A375 melanoma cell cytotoxicity, dose response, counter-screen for MITF inhibitor project, CellTiter-Glo luminescence, dry powder, set 2 (AID 624489); format: functional, cell-based; conditions: A-375;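 further: actives are compounds lowering A375 viability meaning general cytotoxicity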
[11] = THP-1 cell cytotoxicity, dose response, cytotoxicity control for Vif-APOBEC3G degradation inhibitor project, THP-1 cells (AID 1117359); format: functional; conditions: Human immunodeficiency virus 1, THP-1
[12] = inhibitors of Vif binding to APOBEC3G peptide, primary screen, biochemical, TR-FRET, GST-Vif 1-94, biotin-A3G peptide, dose response retest (AID 1117319); format: functional;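 further: TR-FRET signal of purified GST-Vif binding a biotinylated A3G peptide; inhibitors lower the FRET signal by blocking Vif and A3G binding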
[13] = ADAM10 inhibitors, peptide cleavage, dose response, biochemical, QFRET (AID 743254);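 further: ADAM10 enzyme with the DM2 quenched FRET peptide as substrate; EDANS fluorescence gain as the protease cuts the substrate; inhibitor potency against ADAM10 proteolytic activity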
[14] = target: Disintegrin and metalloproteinase domain-containing protein 17 (Homo sapiens, UniProt P78536); assay: ADAM17 protease inhibitors, dose response, counter-screen for ADAM10 exosite inhibitor project, biochemical, quenched FRET substrate (AID 743253)
Sequence of Disintegrin and metalloproteinase domain-containing protein 17 (P78536 whole entry, the tested form may be a part): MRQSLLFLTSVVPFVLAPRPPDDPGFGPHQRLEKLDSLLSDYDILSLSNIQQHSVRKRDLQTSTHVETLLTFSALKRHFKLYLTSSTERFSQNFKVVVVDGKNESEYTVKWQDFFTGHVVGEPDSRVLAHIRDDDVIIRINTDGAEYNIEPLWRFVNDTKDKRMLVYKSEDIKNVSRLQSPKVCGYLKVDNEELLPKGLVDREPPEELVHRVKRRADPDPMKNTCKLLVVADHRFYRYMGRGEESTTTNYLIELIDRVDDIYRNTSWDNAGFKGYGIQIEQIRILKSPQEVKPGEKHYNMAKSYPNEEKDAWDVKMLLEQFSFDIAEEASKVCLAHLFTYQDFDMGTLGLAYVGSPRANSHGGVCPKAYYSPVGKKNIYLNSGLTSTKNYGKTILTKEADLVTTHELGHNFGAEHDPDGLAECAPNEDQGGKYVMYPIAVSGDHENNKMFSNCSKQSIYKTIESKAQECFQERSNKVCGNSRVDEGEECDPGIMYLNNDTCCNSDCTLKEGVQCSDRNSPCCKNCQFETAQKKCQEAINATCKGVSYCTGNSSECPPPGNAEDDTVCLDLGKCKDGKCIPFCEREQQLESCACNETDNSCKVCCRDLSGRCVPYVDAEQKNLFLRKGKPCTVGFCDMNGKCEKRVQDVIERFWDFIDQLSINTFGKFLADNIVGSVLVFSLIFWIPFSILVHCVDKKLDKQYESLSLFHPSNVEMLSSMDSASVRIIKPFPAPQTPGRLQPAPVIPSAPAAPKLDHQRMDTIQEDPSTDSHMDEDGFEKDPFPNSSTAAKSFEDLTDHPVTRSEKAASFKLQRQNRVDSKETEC

Paired box protein Pax-8 = Paired box protein Pax-8 (Homo sapiens, UniProt Q06710); assay: inhibitors of PAX8-driven TPO luciferase reporter, dose response, RMG-I cells, cherry-pick (AID 687027); format: functional, cell-based;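 further: luciferase reporter driven by Pax8 target thyroperoxidase promoter measured by SteadyGlo luminescence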
Sequence of Paired box protein Pax-8 (Q06710 whole entry): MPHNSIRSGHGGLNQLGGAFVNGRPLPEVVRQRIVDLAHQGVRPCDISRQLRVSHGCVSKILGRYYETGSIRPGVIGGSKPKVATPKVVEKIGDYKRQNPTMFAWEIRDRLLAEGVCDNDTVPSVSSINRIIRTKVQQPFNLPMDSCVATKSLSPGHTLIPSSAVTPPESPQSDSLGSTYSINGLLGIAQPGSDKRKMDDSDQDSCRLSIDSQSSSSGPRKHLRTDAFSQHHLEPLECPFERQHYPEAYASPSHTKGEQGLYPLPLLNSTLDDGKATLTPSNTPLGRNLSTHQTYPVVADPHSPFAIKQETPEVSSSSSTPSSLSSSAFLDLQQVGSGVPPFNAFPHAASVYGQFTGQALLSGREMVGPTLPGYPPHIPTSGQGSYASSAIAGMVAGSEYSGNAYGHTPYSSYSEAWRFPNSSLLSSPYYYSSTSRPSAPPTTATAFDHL

[15] = A2780 ovarian cancer cell cytotoxicity, dose response, cytotoxicity control, plate reader, dry powder samples (AID 743046); format: functional, cell-based
[16] = NIH:OVCAR-3 ovarian cancer cell cytotoxicity, dose response, PAX8 inhibitor project, plate reader, dry powder samples (AID 743044); format: functional, cell-based
[17] = non-specific cell cytotoxicity, dose response, cytotoxicity control for PAX8 inhibitor project, plate reader, dry powder samples (AID 743021); format: functional, cell-based
[18] = cytotoxicity in OVCAR8 ovarian cancer cells, dose response, PAX8 project, cell-based, plate reader, dry powder samples (AID 743197); format: functional; conditions: OVCAR-8
[19] = growth suppression of PTEN-null colon cells, dose response, cell-based, HCT116 PTEN knockout (AID 1047); format: functional;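 further: HCT116 colon tumor cells with PTEN knocked out; cells exposed to compound for 60 hours before readout; potency for loss of cell viability measured by luminescence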
[20] = growth suppression of beta-catenin-knockout colon cells, dose response, cell-based, HCT116, human colon tumor (AID 1045); format: functional;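 further: HCT116 colon tumor cells with beta catenin knocked out; cells exposed to compound for 60 hours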
[21] = P. falciparum Dd2 growth inhibitors, dose response, SYBR Green, dry powder samples, set 9 (AID 1159568); format: functional, cell-based

## CCn1c(CSc2n[nH]c(N)n2)nc2cc(C(=O)O)ccc21
Protein skinhead-1
  IC50: > 100 µM (inactive)
[1]
  AC50: 79 µM (active)
Fibrinogen beta chain [2]
  IC50: 8.92 µM (active)
Fibrinogen beta chain [3]
  IC50: > 83.3 µM (inactive)

## CN(c1ccccc1)S(=O)(=O)c1ccc(Cl)c(C(=O)Nc2ccc(-c3nc4ccccc4[nH]3)cc2)c1
[4]
  EC50: 1.68 µM (active)
[5]
  EC50: > 30 µM (not active)
Fibrinogen beta chain [2]
  IC50: > 83.3 µM (inactive)
Fibrinogen beta chain [3]
  IC50: > 83.3 µM (inactive)

## COc1ccc(S(=O)(=O)N(C(C)=O)c2ccc(OC(C)=O)c3ccccc23)cc1[N+](=O)[O-]
[6]
  CC50: 10.7 µM (active)
[7]
  CC50: > 20 µM (active)
[8]
  AC50: 11.6 µM (active)
[9]
  AC50: 55.5 µM (active)
[10]
  AC50: 29.1 µM (active)

## CC1C(=O)N2CCCc3cc(NC(=O)C(=O)NCc4cccnc4)cc1c32 (stereo unspecified)
[11]
  CC50: > 40 µM (active)

## CC(C)Cc1ccc(C(C)C(=N)N)cc1 (stereo unspecified)
[11]
  CC50: > 40 µM (active)
[12]
  IC50: > 100 µM (active)

## CC1(Cc2ccc(C(F)(F)F)o2)C(=O)Nc2cc(-c3ccc(F)cc3F)ccc21 (stereo unspecified)
[13]
  IC50: 15.6 µM (inactive)
[14]
  IC50: > 69.5 µM (inactive)

## C[C@H]1CCCCO[C@H](CN(C)S(=O)(=O)c2ccccc2)[C@@H](C)CN([C@@H](C)CO)C(=O)c2cc(NS(=O)(=O)c3ccc(Cl)cc3)ccc2O1
Paired box protein Pax-8
  AC50: 7.4 µM (active)
[15]
  AC50: 19.1 µM (active)
[16]
  AC50: 58.4 µM (active)
[17]
  AC50: 43.2 µM (active)
[18]
  AC50: > 70 µM (inactive)

## CCN1CCN(C2=C(NS(=O)(=O)c3cccs3)C(=O)c3ccccc3C2=O)CC1
[9]
  AC50: > 70 µM (inactive)
[10]
  AC50: 56.1 µM (active)

## O=S(=O)(N/N=C/c1cn(Cc2ccccc2)c2ccccc12)c1ccccc1
[19]
  EC50: 3.27 µM (active)
[20]
  EC50: 35.6 µM (active)
[13]
  IC50: 25.1 µM (inactive)
[14]
  IC50: > 69.5 µM (inactive)

## CN(C)C(=O)c1ccc(-c2ccc([C@@H]3[C@H]4CN(C(=O)CC5CC5)CC(=O)N4[C@H]3CO)cc2)cc1
[21]
  AC50: 14.4 µM (active)

## Cc1ccccc1-c1ccc2c(c1)O[C@H](CN(C)C(=O)Nc1ccc(C(F)(F)F)cc1)[C@@H](C)CN([C@@H](C)CO)S2(=O)=O
[21]
  AC50: 5.32 µM (active)
